Reference: PubChem BioAssay AID256 (DTP/NCI, 2004)
Inconclusive results and toxic doses are left out. Positions of bridges follow the written chain, without caps; N, C: chain ends. Residues, ends and D or L forms follow the SMILES beside them. Chains are numbered I, II in the order given. *: point of attachment. Bz = O=C(c1ccccc1)*

System: CD2F1 mice, L1210 leukemia ip, survival T/C
Assay: NCI In Vivo Anticancer Drug Screen. Data for tumor model L1210 Leukemia (intraperitoneal) in CD2F1 (CDF1) mice
Conditions: higher = longer survival
In short: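 Read-out first: treated-group measurement over vehicle-control measurement, expressed as a ratio. Animals bore a transplanted tumor line and were dosed with compound or vehicle.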

[1] = endpoint: mean survival time, dose: 100.0 mg/kg/injection, schedule: Q01DX009 (ip), vehicle: saline with Tween-80
[2] = endpoint: mean survival time, dose: 100.0 mg/kg/injection, schedule: Q04DX003 (ip), vehicle: saline with Tween-80
[3] = endpoint: mean survival time, dose: 200.0 mg/kg/injection, schedule: Q01DX009 (ip), vehicle: saline with Tween-80
[4] = endpoint: mean survival time, dose: 400.0 mg/kg/injection, schedule: Q01DX009 (ip), vehicle: saline with Tween-80
[5] = endpoint: mean survival time, dose: 100.0 mg/kg/injection, schedule: Q04DX003 (ip), vehicle: alcohol
[6] = endpoint: mean survival time, dose: 200.0 mg/kg/injection, schedule: Q04DX003 (ip), vehicle: alcohol
[7] = endpoint: mean survival time, dose: 100.0 mg/kg/injection, schedule: Q01DX001 (ip), vehicle: saline with Tween-80
[8] = endpoint: mean survival time, dose: 200.0 mg/kg/injection, schedule: Q01DX001 (ip), vehicle: saline with Tween-80
[9] = endpoint: mean survival time, dose: 400.0 mg/kg/injection, schedule: Q01DX001 (ip), vehicle: saline with Tween-80
[10] = endpoint: mean survival time, dose: 100.0 mg/kg/injection, schedule: Q04DX003 (ip), vehicle: saline
[11] = endpoint: mean survival time, dose: 100.0 mg/kg/injection, schedule: Q01DX009 (ip), vehicle: Klucel (hydroxypropylcellulose) (HPC)
[12] = endpoint: mean survival time, dose: 200.0 mg/kg/injection, schedule: Q01DX009 (ip), vehicle: Klucel (hydroxypropylcellulose) (HPC)

## CCCC(=O)Nc1ncnc2c1nc(NC(=O)CCC)n2C1OC2COP(=O)(O)OC2C1OC(=O)CCC (configuration not stated)
endpoint: mean survival time, dose: 6.25 mg/kg/injection, schedule: Q01DX005 (ip), vehicle: water
  T/C: 97 % of control
endpoint: mean survival time, dose: 12.5 mg/kg/injection, schedule: Q01DX005 (ip), vehicle: water
  T/C: 104 % of control
endpoint: mean survival time, dose: 25.0 mg/kg/injection, schedule: Q01DX005 (ip), vehicle: water
  T/C: 93 % of control
endpoint: mean survival time, dose: 50.0 mg/kg/injection, schedule: Q01DX005 (ip), vehicle: water
  T/C: 97 % of control
endpoint: mean survival time, dose: 100.0 mg/kg/injection, schedule: Q01DX005 (ip), vehicle: water
  T/C: 93 % of control

## CCOC(=O)CC1NCCS1 (configuration not stated)
endpoint: mean survival time, dose: 100.0 mg/kg/injection, schedule: Q01DX001 (ip), vehicle: saline
  T/C: 97 % of control
endpoint: mean survival time, dose: 200.0 mg/kg/injection, schedule: Q01DX001 (ip), vehicle: saline
  T/C: 96 % of control
endpoint: mean survival time, dose: 400.0 mg/kg/injection, schedule: Q01DX001 (ip), vehicle: saline
  T/C: 94 % of control

## O=C1CCCCCCCCCCC1C(O)(C(F)(F)F)C(F)(F)F (configuration not stated)
[1]
  T/C: 96 % of control
[2]
  T/C: 91 % of control
[3]
  T/C: 101 % of control
endpoint: mean survival time, dose: 200.0 mg/kg/injection, schedule: Q04DX003 (ip), vehicle: saline with Tween-80
  T/C: 95 % of control
[4]
  T/C: 96 % of control
endpoint: mean survival time, dose: 400.0 mg/kg/injection, schedule: Q04DX003 (ip), vehicle: saline with Tween-80
  T/C: 91 % of control

## Cn1cc(NC(=O)c2cc(NC(=O)c3cc(NC=O)cn3C)cn2C)cc1C(=O)NCCC(=N)N
[5]
  T/C: 108 % of control
[6]
  T/C: 102 % of control
endpoint: median survival time, dose: 12.5 mg/kg/injection, schedule: Q01DX009 (ip), vehicle: water
  T/C: 104 % of control
endpoint: median survival time, dose: 25.0 mg/kg/injection, schedule: Q01DX009 (ip), vehicle: water
  T/C: 100 % of control
endpoint: median survival time, dose: 50.0 mg/kg/injection, schedule: Q01DX009 (ip), vehicle: water
  T/C: 103 % of control
endpoint: median survival time, dose: 100.0 mg/kg/injection, schedule: Q01DX009 (ip), vehicle: water
  T/C: 108 % of control

## O=C1CSC(=S)N1/N=C/c1ccc(F)cc1
endpoint: mean survival time, dose: 75.0 mg/kg/injection, schedule: Q01DX001 (ip), vehicle: other
  T/C: 100 % of control
endpoint: mean survival time, dose: 150.0 mg/kg/injection, schedule: Q01DX001 (ip), vehicle: other
  T/C: 102 % of control
endpoint: mean survival time, dose: 300.0 mg/kg/injection, schedule: Q01DX001 (ip), vehicle: other
  T/C: 98 % of control

## COC(=O)C(CSSCC(NC(=O)CNC(=O)c1ccccc1)C(=O)OC)NC(=O)CNC(=O)c1ccccc1 (stereo not drawn) (I: Bz-Gly-Cys-OMe / II: Bz-Gly-Cys-OMe; disulfide I:2-II:2; configuration not given here)
[7]
  T/C: 108 % of control
[1]
  T/C: 87 % of control
[8]
  T/C: 102 % of control
[3]
  T/C: 87 % of control
[9]
  T/C: 97 % of control

## CCOC(=O)c1c[nH]c2ccc3c(nc(C)n3C)c2c1=O
endpoint: median survival time, dose: 25.0 mg/kg/injection, schedule: Q01DX005 (ip), vehicle: Klucel (hydroxypropylcellulose) (HPC)
  T/C: 98 % of control
endpoint: median survival time, dose: 50.0 mg/kg/injection, schedule: Q01DX005 (ip), vehicle: Klucel (hydroxypropylcellulose) (HPC)
  T/C: 100 % of control
endpoint: median survival time, dose: 100.0 mg/kg/injection, schedule: Q01DX005 (ip), vehicle: Klucel (hydroxypropylcellulose) (HPC)
  T/C: 108 % of control
endpoint: median survival time, dose: 200.0 mg/kg/injection, schedule: Q01DX005 (ip), vehicle: Klucel (hydroxypropylcellulose) (HPC)
  T/C: 112 % of control

## Cc1cc[n+](CCc2ccccc2)cc1
endpoint: mean survival time, dose: 25.0 mg/kg/injection, schedule: Q01DX009 (ip), vehicle: saline with Tween-80
  T/C: 112 % of control
endpoint: mean survival time, dose: 25.0 mg/kg/injection, schedule: Q04DX003 (ip), vehicle: saline
  T/C: 95 % of control
endpoint: mean survival time, dose: 50.0 mg/kg/injection, schedule: Q01DX009 (ip), vehicle: saline with Tween-80
  T/C: 98 % of control
endpoint: mean survival time, dose: 50.0 mg/kg/injection, schedule: Q04DX003 (ip), vehicle: saline
  T/C: 96 % of control
[10]
  T/C: 94 % of control

## Clc1ccccc1N=Cc1ccc2c(c1)OCO2
[11]
  T/C: 105 % of control
[5]
  T/C: 103 % of control
[12]
  T/C: 100 % of control
[6]
  T/C: 109 % of control
endpoint: mean survival time, dose: 400.0 mg/kg/injection, schedule: Q01DX009 (ip), vehicle: Klucel (hydroxypropylcellulose) (HPC)
  T/C: 100 % of control
endpoint: mean survival time, dose: 400.0 mg/kg/injection, schedule: Q04DX003 (ip), vehicle: alcohol
  T/C: 105 % of control

## O=c1[nH]c(=O)n(C2CC(O)C(CO)O2)cc1-c1ccccc1 (configuration not stated)
endpoint: mean survival time, dose: 12.5 mg/kg/injection, schedule: Q01DX005 (ip), vehicle: distilled water + Tween-80
  T/C: 98 % of control
endpoint: mean survival time, dose: 25.0 mg/kg/injection, schedule: Q01DX005 (ip), vehicle: distilled water + Tween-80
  T/C: 95 % of control
endpoint: mean survival time, dose: 50.0 mg/kg/injection, schedule: Q01DX005 (ip), vehicle: distilled water + Tween-80
  T/C: 98 % of control
endpoint: mean survival time, dose: 100.0 mg/kg/injection, schedule: Q01DX005 (ip), vehicle: distilled water + Tween-80
  T/C: 95 % of control
endpoint: mean survival time, dose: 200.0 mg/kg/injection, schedule: Q01DX005 (ip), vehicle: distilled water + Tween-80
  T/C: 98 % of control

## O=C(CNC(=O)c1ccccc1)N/N=C/c1ccncc1
[1]
  T/C: 90 % of control
[4]
  T/C: 92 % of control

## O=C(O)C1C2CC(C1C(=O)O)C(C(=O)O)C2C(=O)O (configuration not stated)
[7]
  T/C: 94 % of control
[1]
  T/C: 87 % of control
[8]
  T/C: 88 % of control
[3]
  T/C: 87 % of control
[9]
  T/C: 95 % of control

## Cc1cccc(-n2c(N)cc(=O)[nH]c2=S)n1
[2]
  T/C: 96 % of control

## CC(=O)C(C)C(C)=O
[1]
  T/C: 105 % of control
[3]
  T/C: 107 % of control
[4]
  T/C: 102 % of control

## O=Cc1ccc(OCCCOc2ccc([N+](=O)[O-])cc2)cc1
endpoint: mean survival time, dose: 100.0 mg/kg/injection, schedule: Q04DX002 (ip), vehicle: Klucel (hydroxypropylcellulose) (HPC)
  T/C: 102 % of control
endpoint: mean survival time, dose: 200.0 mg/kg/injection, schedule: Q04DX002 (ip), vehicle: Klucel (hydroxypropylcellulose) (HPC)
  T/C: 94 % of control
endpoint: mean survival time, dose: 400.0 mg/kg/injection, schedule: Q04DX002 (ip), vehicle: Klucel (hydroxypropylcellulose) (HPC)
  T/C: 102 % of control

## Oc1cc(O)c2c(c1)OC(c1ccc(O)c(O)c1)C(O)C2c1c(O)cc(O)c2c1OC(c1ccc(O)c(O)c1)C(O)C2 (configuration not stated)
[10]
  T/C: 107 % of control
endpoint: mean survival time, dose: 200.0 mg/kg/injection, schedule: Q04DX003 (ip), vehicle: saline
  T/C: 95 % of control
endpoint: mean survival time, dose: 400.0 mg/kg/injection, schedule: Q04DX003 (ip), vehicle: saline
  T/C: 104 % of control

## CC1CC(C)(C)CC2CC(C(=O)O)(C(=O)O)CC12 (configuration not stated)
endpoint: mean survival time, dose: 100.0 mg/kg/injection, schedule: Q04DX003 (ip), vehicle: saline sonified
  T/C: 102 % of control
endpoint: mean survival time, dose: 200.0 mg/kg/injection, schedule: Q04DX003 (ip), vehicle: saline sonified
  T/C: 96 % of control
endpoint: mean survival time, dose: 400.0 mg/kg/injection, schedule: Q04DX003 (ip), vehicle: saline sonified
  T/C: 100 % of control

## Clc1ncnc2c1ncn2CCCn1cnc2c(Cl)ncnc21
endpoint: mean survival time, dose: 12.5 mg/kg/injection, schedule: Q01DX009 (ip), vehicle: Klucel (hydroxypropylcellulose) (HPC)
  T/C: 94 % of control
endpoint: mean survival time, dose: 25.0 mg/kg/injection, schedule: Q01DX009 (ip), vehicle: Klucel (hydroxypropylcellulose) (HPC)
  T/C: 90 % of control
endpoint: mean survival time, dose: 50.0 mg/kg/injection, schedule: Q01DX009 (ip), vehicle: Klucel (hydroxypropylcellulose) (HPC)
  T/C: 94 % of control
[11]
  T/C: 103 % of control
[12]
  T/C: 101 % of control

## COc1ccccc1NC(=O)OCC(Cl)(Cl)Cl
endpoint: mean survival time, dose: 100.0 mg/kg/injection, schedule: Q04DX002 (ip), vehicle: saline with Tween-80
  T/C: 103 % of control
endpoint: mean survival time, dose: 200.0 mg/kg/injection, schedule: Q04DX002 (ip), vehicle: saline with Tween-80
  T/C: 100 % of control
endpoint: mean survival time, dose: 400.0 mg/kg/injection, schedule: Q04DX002 (ip), vehicle: saline with Tween-80
  T/C: 95 % of control

## CN(C)[C@@H]1C(=O)C(C(=O)NCNC(Cc2ccc(N(CCCl)CCCl)cc2)C(=O)O)=C(O)[C@@]2(O)C(=O)C3=C(O)c4c(O)cccc4[C@@](C)(O)[C@H]3C[C@@H]12 (some centres not stated)
endpoint: mean survival time, dose: 100.0 mg/kg/injection, schedule: Q01DX001 (ip), vehicle: other
  T/C: 164 % of control

## CCOC(=O)c1c([N+](=O)[O-])cnn1C1OC(COC(C)=O)C(OC(C)=O)C1OC(C)=O (configuration not stated)
endpoint: median survival time, dose: 8.75 mg/kg/injection, schedule: Q01DX005 (ip), vehicle: distilled water + Tween-80
  T/C: 104 % of control
endpoint: median survival time, dose: 17.5 mg/kg/injection, schedule: Q01DX005 (ip), vehicle: distilled water + Tween-80
  T/C: 107 % of control
endpoint: median survival time, dose: 35.0 mg/kg/injection, schedule: Q01DX005 (ip), vehicle: distilled water + Tween-80
  T/C: 96 % of control
endpoint: median survival time, dose: 70.0 mg/kg/injection, schedule: Q01DX005 (ip), vehicle: distilled water + Tween-80
  T/C: 101 % of control
endpoint: median survival time, dose: 140.0 mg/kg/injection, schedule: Q01DX005 (ip), vehicle: distilled water + Tween-80
  T/C: 101 % of control
